Where only a bound is given, the exact number is not on record here.

The target in one test is T1, human liver cathepsin D (Homo sapiens, UniProt P07339).
T1 construct: human liver cathepsin D (Calbiochem); purchased Calbiochem; host or cells: human liver
T1 sequence (P07339 169-412 limits assumed): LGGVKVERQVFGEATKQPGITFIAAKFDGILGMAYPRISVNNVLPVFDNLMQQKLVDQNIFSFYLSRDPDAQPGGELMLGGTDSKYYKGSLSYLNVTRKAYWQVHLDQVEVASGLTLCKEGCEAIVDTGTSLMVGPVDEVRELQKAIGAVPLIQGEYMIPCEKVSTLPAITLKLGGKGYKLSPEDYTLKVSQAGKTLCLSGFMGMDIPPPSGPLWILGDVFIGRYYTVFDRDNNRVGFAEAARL
T1 sequence (P07339 65-162 limits assumed): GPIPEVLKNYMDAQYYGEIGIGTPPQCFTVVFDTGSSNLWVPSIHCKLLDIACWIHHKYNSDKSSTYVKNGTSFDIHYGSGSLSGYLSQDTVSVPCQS
The experiment in a line: High-throughput fluorometric cathepsin D assay (library screen). It is filed as biochemical. To be noted: 100 nM inhibitor, crude compound, approximate concentration. From the text:
Compounds capable of inhibiting cathepsin D can readily be identified using the assays described herein which measure a change in the hydrolysis of a peptide substrate. More particularly, a fluorometric high through-put assay for activity toward human liver cathepsin D (Calbiochem) can be used to screen the compounds of the present invention for their ability to inhibit cathepsin D. This assay was previously described by G. A. Kraft, et al., Methods Enzymol. 241, 70-86 (1994), the teachings of which are incorporated herein by reference. […] T. Baldwin, et al., Proc. Natl. Acad. Sci., U.S.A. 90, 6796-6800 (1993)). Generally, the reactants are mixed, the reaction is allowed to proceed for a specific period of time and the fluorescence of the reaction products is monitored to determine the extent to which the peptide substrate has been cleaved. […] 241, 70-86 (1994). As such, following the methods of the present invention, compounds can be readily synthesized and screened to identify compounds that inhibit cathepsin D. Briefly, a fluorometric high through-put assay for activity toward human liver cathepsin D (Calbiochem) was performed in 96-well microtiter plates (G. A. Krafft, et al., Methods Enymol. 241, 70-86 (1994)). […] T. Baldwin, et al., Proc. Natl. Acad. Sci., U.S.A. 90, 6796-6800 (1993)). The assay was performed in […] Microfluor fluorescence microtiter plates, and readings were taken on a Perkin-Elmer LS-50B with an attached 96-well plate reader. The excitation wavelength was 340 nm. A 340 nm interference filter (Hoya, U-340) for excitation and a 430 nm cut-off filter for emission were used. […] The fluorescent unit readings were taken at three time points within the linear region of the substrate cleavage, and percent activity of the enzyme was determined by comparing the change of fluorescent units (FU) for each well to the average change in FU for six control wells without inhibitor.
A word on the inhibition: it is the relative decrease from the control value, in per cent. As for `O=C(CCn1c(=O)oc2ccccc21)N[C@@H](Cc1ccccc1)[C@@H](O)CN(CCc1ccc2c(c1)OCO2)C(=O)COc1c(Cl)cc(Cl)cc1Cl` [EAA], the inhibition at 0.1 µM was not below 50%.
Same read-out and setting: the value for `O=C(CCc1ccc2c(c1)OCO2)N[C@@H](Cc1ccccc1)[C@@H](O)CN(CCc1ccc2c(c1)OCO2)C(=O)CCN1C(=O)c2ccccc2C1=O` [EHI] was not below 50%.

Staying with this test, now noted: 330 nM inhibitor, crude compound, approximate concentration; read-out: Inhibition of Cathepsin D in Library Screen.
As to `O=C(CCn1c(=O)oc2ccccc21)N[C@@H](Cc1ccccc1)[C@@H](O)CN(CCc1ccc2c(c1)OCO2)C(=O)COc1c(Cl)cc(Cl)cc1Cl` [EAA], the inhibition at 0.33 µM is not below 50%.
Still for that read-out and setting: under `COc1ccc(C(=O)N[C@@H](Cc2ccccc2)[C@@H](O)CN(CCc2ccc3c(c2)OCO3)C(=O)COc2c(Cl)cc(Cl)cc2Cl)c(Cl)c1OC` [EAJ] stands not below 50%; under `O=C(N[C@@H](Cc1ccccc1)[C@@H](O)CN(CCc1ccc2c(c1)OCO2)C(=O)/C=C/c1cc2c(cc1Br)OCO2)c1ccc([N+](=O)[O-])cc1Cl` [EEF], not below 50%.
Still for that read-out and setting: under `O=C(COc1cc(Cl)c(Cl)cc1Cl)N[C@@H](Cc1ccccc1)[C@@H](O)CN(CCc1ccc2c(c1)OCO2)C(=O)CCc1ccc(Cl)c(Cl)c1` [EFD] stands not below 50%.
Same read-out and setting: the value for `O=C(CCN1C(=O)c2ccccc2C1=O)N[C@@H](Cc1ccccc1)[C@@H](O)CN(CCc1ccc2c(c1)OCO2)C(=O)CCc1ccc(Cl)c(Cl)c1` [EFH] was not below 50%; that for `O=C(CCc1ccc2c(c1)OCO2)N[C@@H](Cc1ccccc1)[C@@H](O)CN(CCc1ccc2c(c1)OCO2)C(=O)CCc1ccc(Cl)c(Cl)c1` [EFI] was not below 50%; that for `COc1ccc(C(=O)N[C@@H](Cc2ccccc2)[C@@H](O)CN(CCc2ccc3c(c2)OCO3)C(=O)CCc2ccc(Cl)c(Cl)c2)c(Cl)c1OC` [EFJ] was not below 50%.
Regarding `COc1ccc(C(=O)N[C@@H](Cc2ccccc2)[C@@H](O)CN(CCc2ccc3c(c2)OCO3)C(=O)/C=C/c2c(Cl)cccc2Cl)c(Cl)c1OC` [EGJ], the inhibition at 0.33 µM was not below 50%.
Still for that read-out and setting: the value for `O=C(/C=C/c1c(Cl)cccc1Cl)N[C@@H](Cc1ccccc1)[C@@H](O)CN(CCc1ccc2c(c1)OCO2)C(=O)CCN1C(=O)c2ccccc2C1=O` [EHB] was not below 50%; that for `O=C(CCN1C(=O)c2ccccc2C1=O)N[C@@H](Cc1ccccc1)[C@@H](O)CN(CCc1ccc2c(c1)OCO2)C(=O)CCN1C(=O)c2ccccc2C1=O` [EHH] was not below 50%.
On the same count and under the same terms, under `O=C(CCc1ccc2c(c1)OCO2)N[C@@H](Cc1ccccc1)[C@@H](O)CN(CCc1ccc2c(c1)OCO2)C(=O)CCN1C(=O)c2ccccc2C1=O` [EHI] stands not below 50%; under `O=C(CCn1c(=O)oc2ccccc21)N[C@@H](Cc1ccccc1)[C@@H](O)CN(CCc1ccc(Cl)cc1Cl)C(=O)COc1c(Cl)cc(Cl)cc1Cl` [FAA], not below 50%.
Still for that read-out and setting: under `O=C(CCN1C(=O)c2ccccc2C1=O)N[C@@H](Cc1ccccc1)[C@@H](O)CN(CCc1ccc(Cl)cc1Cl)C(=O)COc1c(Cl)cc(Cl)cc1Cl` [FAH] stands not below 50%.
Consider `O=C(CCn1c(=O)oc2ccccc21)N[C@@H](Cc1ccccc1)[C@@H](O)CN(CCc1ccc(Cl)cc1Cl)C(=O)CCc1ccc(Cl)c(Cl)c1` [FFA], for which the inhibition at 0.33 µM was not below 50%.
Same read-out and setting: under `O=C(CCN1C(=O)c2ccccc2C1=O)N[C@@H](Cc1ccccc1)[C@@H](O)CN(CCc1ccc(Cl)cc1Cl)C(=O)CCc1ccc(Cl)c(Cl)c1` [FFH] stands not below 50%; under `O=C(N[C@@H](Cc1ccccc1)[C@@H](O)CN(CCc1ccc(Cl)cc1Cl)C(=O)CCN1C(=O)c2ccccc2C1=O)c1ccc([N+](=O)[O-])cc1Cl` [FHF], not below 50%.
The same measure, in the same setting: the value for `COc1ccc(C(=O)N[C@@H](Cc2ccccc2)[C@@H](O)CN(CCc2ccc(Cl)cc2Cl)C(=O)CCN2C(=O)c3ccccc3C2=O)c(Cl)c1OC` [FHJ] was not below 50%.

Still in this test, the particulars now being: read-out: Inhibition of Cathepsin D in Library Screen.
Consider `O=C(N[C@@H](Cc1ccccc1)[C@@H](O)CN(CCc1ccc2c(c1)OCO2)C(=O)CCN1C(=O)c2ccccc2C1=O)c1ccc([N+](=O)[O-])cc1Cl` [EHF], for which the inhibition at 0.33 µM was not below 50%.

For the origin of these results see US7119105B2, “Methods for treating neurodegenerative disorders using aspartyl protease inhibitors” (The Regents of the University of California, priority 1997, dated 2006).
